Among the data in US10131642B1, “Aldosterone synthase inhibitors” (Boehringer Ingelheim International GmbH, priority 2015, dated 2018) are IC50 values, retold here.

As a reminder, the IC50 is the point on the concentration scale where inhibition reaches its midpoint.

Assay [1] deals with cortisol synthase (CYP11B1) (Macaca fascicularis, UniProt A0A2K5ULY1). The assay can be described thus: Inhibition of cortisol synthesis (cynomolgus adrenal mitochondria, cortisol by mass spectrometry). The format is biochemical, cynomolgus monkey. Particulars: cynomolgus adrenal gland mitochondria, 11-deoxycortisol as substrate, cortisol measured as product; read-out: CYP11B1 Inhibition IC50. As to the method:
The aldosterone synthase and cortisol synthase inhibition assays employ cynomolgus adrenal gland mitochondria as the source of aldosterone synthase (CYP11B2) and cortisol synthase (CYP11B1). Mitochondria are prepared from frozen cynomolgus monkey adrenal glands according to Method A described in by J. D. McGarry et al. (Biochem. J., 1983, 214, 21-28), with a final resuspension in the AT buffer described in R. Yamaguchi et al. (Cell Death and Differentiation, 2007, 14, 616-624), frozen as aliquots in liquid nitrogen and stored at −80° C. until use. Activity of CYP11B2 and CYP11B1 in these preparations is defined as the amount of enzyme that generates 1 pmol of product in one hour under the conditions described. Dose dependent inhibition is quantified by the inclusion of compound at various concentrations. Maximum activity (100%) is defined by reactions containing NADPH, but without compound. Activities at each concentration are expressed as a percentage of the maximum activity (y-axis) and plotted against concentration of compound (x-axis) and the concentration corresponding to 50% activity (IC50) determined using the XLFit curve-fitting program using a 4-parameter logistic model. Assays are performed as for aldosterone synthase except for the use of 150 units of CYP11B1, 11-deoxycortisol as substrate and cortisol measured as product.

Assay [2] deals with T1, aldosterone synthase (CYP11B2) (Macaca fascicularis, UniProt A0A2K5UPL9).
T1 construct: cynomolgus adrenal gland mitochondria as the source of aldosterone synthase (CYP11B2); from tissue; host or cells: cynomolgus monkey adrenal gland mitochondria
T1 sequence (A0A2K5UPL9 1-503): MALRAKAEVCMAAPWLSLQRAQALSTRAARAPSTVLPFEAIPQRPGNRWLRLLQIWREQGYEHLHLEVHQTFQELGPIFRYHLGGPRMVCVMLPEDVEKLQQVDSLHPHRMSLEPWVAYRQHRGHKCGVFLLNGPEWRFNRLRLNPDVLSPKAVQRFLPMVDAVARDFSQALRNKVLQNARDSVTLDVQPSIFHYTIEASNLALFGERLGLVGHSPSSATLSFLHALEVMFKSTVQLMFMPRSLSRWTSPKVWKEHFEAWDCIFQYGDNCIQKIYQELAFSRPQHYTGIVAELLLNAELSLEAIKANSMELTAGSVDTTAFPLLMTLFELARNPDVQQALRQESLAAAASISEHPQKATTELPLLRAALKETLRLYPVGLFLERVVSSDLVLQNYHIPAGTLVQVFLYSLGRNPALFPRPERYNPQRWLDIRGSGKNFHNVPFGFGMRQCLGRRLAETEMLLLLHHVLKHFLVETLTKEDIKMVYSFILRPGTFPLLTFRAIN
The experiment in a line: Inhibition of aldosterone synthase (cynomolgus adrenal mitochondria, aldosterone by mass spectrometry). Particulars: cynomolgus adrenal gland mitochondria, 2 μM corticosterone substrate, 90 minutes at 37° C. The format is biochemical, cynomolgus monkey. How it is done:
The aldosterone synthase and cortisol synthase inhibition assays employ cynomolgus adrenal gland mitochondria as the source of aldosterone synthase (CYP11B2) and cortisol synthase (CYP11B1). Mitochondria are prepared from frozen cynomolgus monkey adrenal glands according to Method A described in by J. D. McGarry et al. (Biochem. J., 1983, 214, 21-28), with a final resuspension in the AT buffer described in R. Yamaguchi et al. (Cell Death and Differentiation, 2007, 14, 616-624), frozen as aliquots in liquid nitrogen and stored at −80° C. until use. Activity of CYP11B2 and CYP11B1 in these preparations is defined as the amount of enzyme that generates 1 pmol of product in one hour under the conditions described.
Assays are performed in 96-well format in a final volume of 60 µL/well, containing 100 mM potassium phosphate, pH 7.4, 1% (v/v) DMSO, and additionally, 2 μM of corticosterone and 50 units of CYP11B2 activity. Reactions are started by the addition of NADPH to 1 mM and allowed to proceed for 90 minutes at 37° C. Reactions are terminated by the addition of 60 μL of MeCN containing an internal standard for mass spectrometry. One hundred microliters are then transferred to a glass filter plate and centrifuged at 570×g for 5 minutes and the filtrate is collected. Reaction product aldosterone is quantified by mass spectrometry. To determine the assay blank value (0% activity), NADPH is omitted from some reactions.
Dose dependent inhibition is quantified by the inclusion of compound at various concentrations. Maximum activity (100%) is defined by reactions containing NADPH, but without compound. Activities at each concentration are expressed as a percentage of the maximum activity (y-axis) and plotted against concentration of compound (x-axis) and the concentration corresponding to 50% activity (IC50) determined using the XLFit curve-fitting program using a 4-parameter logistic model.

For `CC1CC(=O)c2c(noc2Cc2ccc(C#N)cc2)C1` (stereo not drawn) [Cpd 36, 4-(6-Methyl-4-oxo-4,5,6,7-tetrahydro-benzo[c]isoxazol-3-ylmethyl)-benzonitrile], the IC50 worked out at 7600 nM in assay [1] and 200 nM in assay [2].
Taken in the same sequence, the figures for `CN(CCS(C)(=O)=O)C(=O)c1ccc(Cc2onc3c2C(=O)CC(C)(C)C3)cc1` [Cpd 64, 4-(6,6-Dimethyl-4-oxo-4,5,6,7-tetrahydro-benzo[c]isoxazol-3-ylmethyl)-N-(2-methanesulfonyl-ethyl)-N-methyl-benzamide] were 9300 nM and 110 nM.
In the case of `N#Cc1ccc(Cc2onc3c2C(=O)CC(Cc2ccccc2)C3)cc1` (stereo not drawn) [Cpd 28, 4-(6-Benzyl-4-oxo-4,5,6,7-tetrahydro-benzo[c]isoxazol-3-ylmethyl)-benzonitrile], the IC50 in assay [1] came out at 4900 nM; in assay [2], 65 nM.
The like results for `CC1(C)Cc2noc(Cc3ccc(C#N)cc3)c2C(=O)O1` [Cpd 87, 4-(6,6-Dimethyl-4-oxo-6,7-dihydro-4H-pyrano[4,3-c]isoxazol-3-ylmethyl)-benzonitrile] were, in that order, 77000 nM and 220 nM.
The like results for `CC1(C)CC(=O)c2c(noc2Cc2ccc(S(C)(=O)=O)cc2)C1` [Cpd 9, 3-(4-Methanesulfonyl-benzyl)-6,6-dimethyl-6,7-dihydro-5H-benzo[c]isoxazol-4-one] were, in that order, 3700 nM and 84 nM.
As for `CC1(C)CC(=O)c2c(noc2Cc2ccc(OCCC(=O)N3CC[C@@H](O)C3)cc2)C1` [Cpd 83, 3-{4-[3-((R)-3-Hydroxy-pyrrolidin-1-yl)-3-oxo-propoxy]-benzyl}-6,6-dimethyl-6,7-dihydro-5H-benzo[c]isoxazol-4-one], the IC50 in assay [1] was 2700 nM; in assay [2], 69 nM.
The like results for `COCC(=O)N1CCC(Cc2onc3c2C(=O)CC(C(C)C)C3)CC1` (stereo not drawn) [Cpd 18, 6-Isopropyl-3-[1-(2-methoxy-acetyl)-piperidin-4-ylmethyl]-6,7-dihydro-5H-benzo[c]isoxazol-4-one] were, in that order, 2800 nM and 89 nM.
Consider `CC1(C)CC(=O)c2c(noc2Cc2ccc(OCCCC(N)=O)cc2)C1` [Cpd 78], for which the IC50 was 3300 nM in assay [1] and 24 nM in assay [2].
Taken in the same sequence, the figures for `CC1(C)CC(=O)c2c(noc2Cc2ccc(C(=O)N3CC[C@@H](O)C3)cc2)C1` [Cpd 46, 3-[4-((R)-3-Hydroxy-pyrrolidine-1-carbonyl)-benzyl]-6,6-dimethyl-6,7-dihydro-5H-benzo[c]isoxazol-4-one] were 5800 nM and 130 nM.
For the molecule `CC(C)C1CC(=O)c2c(noc2CC2CC2)C1` (stereo not drawn) [Cpd 6, 3-Cyclopropylmethyl-6-isopropyl-6,7-dihydro-5H-benzo[c]isoxazol-4-one], the IC50 was 21000 nM in assay [1] and 27 nM in assay [2].
As to `O=C(O)c1ccc(Cc2onc3c2C(=O)CC(CC2CC2)C3)cc1` (stereo not drawn) [Cpd 45, 4-(6-Cyclopropylmethyl-4-oxo-4,5,6,7-tetrahydro-benzo[c]isoxazol-3-ylmethyl)-benzoic acid], the IC50 amounted to 64000 nM in assay [1] and 420 nM in assay [2].
Turning to `CC(C)C1CC(=O)c2c(noc2Cc2ccc(C(N)=O)cc2)C1` (stereo not drawn) [Cpd 76, 4-(6-Isopropyl-4-oxo-4,5,6,7-tetrahydro-benzo[c]isoxazol-3-ylmethyl)-benzamide], the half-maximal inhibitory concentration (IC50) in assay [1] stood at 530 nM; in assay [2], 25 nM.
Taken in the same sequence, the figures for `CC1(C)CC(=O)c2c(noc2Cc2cccc(C#N)c2)C1` [Cpd 11, 3-(6,6-Dimethyl-4-oxo-4,5,6,7-tetrahydro-benzo[c]isoxazol-3-ylmethyl)-benzonitrile] were 9300 nM and 140 nM.
In the case of `CC1(C)Cc2noc(Cc3ccc(C(=O)N4CC[C@@H](O)C4)cc3)c2C(=O)O1` [Cpd 93, 3-[4-((R)-3-Hydroxy-pyrrolidine-1-carbonyl)-benzyl]-6,6-dimethyl-6,7-dihydro-pyrano[4,3-c]isoxazol-4-one], the IC50 was determined as 2600 nM in assay [1] and 73 nM in assay [2].
Turning to `CC1(C)CC(=O)c2c(noc2Cc2ccc(C(=O)N3CC[C@H](S(C)(=O)=O)C3)cc2)C1` [Cpd 53, 3-[4-((S)-3-Methanesulfonyl-pyrrolidine-l-carbonyl)-benzyl]-6,6-dimethyl-6,7-dihydro-5H-benzo[c]isoxazol-4-one], the results for the IC50 in assay [1] and in assay [2] were 6700 nM and 42 nM, respectively.
The like results for `CC(C)C1CC(=O)c2c(noc2Cc2ccc(C#N)cc2)C1` (single isomer, unassigned) [Cpd 39B, 4-(-6-Isopropyl-4-oxo-4,5,6,7-tetrahydro-benzo[c]isoxazol-3-ylmethyl)-benzonitrile] were, in that order, 3400 nM and 120 nM.
The like results for `N#Cc1ccc(Cc2onc3c2C(=O)CC(CC2CC2)C3)cc1` (stereo not drawn) [Cpd 30, 4-(6-Cyclopropylmethyl-4-oxo-4,5,6,7-tetrahydro-benzo[c]isoxazol-3-ylmethyl)-benzonitrile] were, in that order, 14000 nM and 74 nM.
Taken in the same sequence, the figures for `CC(C)C1CC(=O)c2c(noc2Cc2ccc(OCCCS(C)(=O)=O)cc2)C1` (stereo not drawn) [Cpd 47, 6-Isopropyl-3-[4-(3-methanesulfonyl-propoxy)-benzyl]-6,7-dihydro-5H-benzo[c]isoxazol-4-one] were 130 nM and 20 nM.
With `CC1(C)CC(=O)c2c(noc2Cc2ccc3c(c2)NC(=O)CO3)C1` [Cpd 35, 6-(6,6-Dimethyl-4-oxo-4,5,6,7-tetrahydro-benzo[c]isoxazol-3-ylmethyl)-4H-benzo[1,4]oxazin-3-one], the IC50 was 5200 nM in assay [1] and 160 nM in assay [2].
The like results for `O=C1CC(Cc2ccccc2)Cc2noc(Cc3ccccc3)c21` (stereo not drawn) [Cpd 26, 3,6-Dibenzyl-6,7-dihydro-5H-benzo[c]isoxazol-4-one] were, in that order, 2300 nM and 49 nM.
Taken in the same sequence, the figures for `CC(=O)N1CCC(Cc2onc3c2C(=O)CC2(CCC2)C3)CC1` [Cpd 16, 3-(1-Acetyl-piperidin-4-ylmethyl)-6,6-spiro-cyclobutyl-6,7-dihydro-5H-benzo[c]isoxazol-4-one] were 3900 nM and 47 nM.
Taken in the same sequence, the figures for `CC1(C)CC(=O)c2c(noc2Cc2ccc(Br)cc2)C1` [Cpd 33, 3-(4-Bromo-benzyl)-6,6-dimethyl-6,7-dihydro-5H-benzo[c]isoxazol-4-one] were 4100 nM and 92 nM.
Regarding `CN1CCN(C(=O)c2ccc(Cc3onc4c3C(=O)OC(C)(C)C4)cc2)CC1=O` [Cpd 97, 6,6-Dimethyl-3-[4-(4-methyl-3-oxo-piperazine-1-carbonyl)-benzyl]-6,7-dihydro-pyrano[4,3-c]isoxazol-4-one], the IC50 was 11000 nM in assay [1] and 170 nM in assay [2].
Consider `CC1(C)Cc2noc(Cc3ccc(F)cc3)c2C(=O)O1` [Cpd 88, 3-(4-Fluoro-benzyl)-6,6-dimethyl-6,7-dihydro-pyrano[4,3-c]isoxazol-4-one], for which the IC50 in assay [1] was 25000 nM; in assay [2], 190 nM.
